# Assay results taken from patent US20110212106A1, “HIV-1 NE[…] USES THEREOF” (priority 2010, published 2011).
# “And” between values parts separate entries of the source, which are not always exact repeats. Identical values can stand only once. Like-named read-outs stand apart in the source and are kept apart here.
# Key:
# [1] = system: HIV-1 pseudoviruses in HOS-CD4-CCR5 cells; conditions: for IC50: Table 7, HOS
# Procedure: To measure the neutralization activity of the isolated mAbs, luciferase-encoding virions pseudotyped with the desired HIV-1 Env proteins were used in a single-cycle infectivity assay, as previously described (Gorny M K, et al. (2002) J Virol 76: 9035-9045). Briefly, appropriate dilutions of the virion-containing culture supernatants were pre-incubated at 37° C. for 1 h with mAbs at various concentrations. The virus-mAb mixtures were added to HOS-CD4-CCR5 cells and incubated for 3 days at 37° C. A similar protocol was used for supernatants screening using TZM-bl cells (Li M, et al. (2006) J Virol 80: 11776-11790). The cells were then lysed with Britelite reagent (Perkin-Elmer) and the relative light units in the cell lysates were determined on a luminometer microplate reader (Veritas, Turner Biosystems). The 50% inhibitory dose (IC50) was defined as the sample concentration at which relative luminescence units were reduced 50% compared to virus control wells.
# The neutralizing activity of the mAbs was measured using 20 pseudotyped HIV-1 primary isolate envs characterized by different sensitivity to neutralization (Li M, et al. (2005) J Virol 79: 10108-10125; Li M, et al. (2006) J Virol 80: 11776-11790). The mAbs were tested at a fixed concentration (100 μg/ml) in the luciferase based neutralization assay using HOS-CD4.R5 as target cells.
# [2] = system: HIV-1 pseudoviruses in TZM-bl cells; conditions: for IC50: Table 7, TZMbl
# gp120 binding to sCD4 = conditions: inhibition of sCD4 binding
# Procedure: Shown is mean±SD of triplicates.
# The ability of mAbs to inhibit binding of sCD4 to gp120 or gp140 was evaluated by ELISA. Serial dilutions of mAbs were pre-incubated with gp120 (or gp140) and added to plates pre-coated with sCD4. After 1 h plates were washed and incubated with sheep polyclonal antibody D7324 (Aalto Bio-Reagents) followed by washing, incubation with AP-conjugated rabbit anti-sheep IgG antibody (Abcam, Cambridge, UK), extensive washing and detection using p-NPP (Sigma) as substrate.
# [3] = system: primary replication competent HIV-1 isolates
substance,measurement,setting,value
"HJ16: human mAb from clade C donor, CD4 binding site proximal epitope; VH SEQ ID NO: 13, VL SEQ ID NO: 14",plateau of heterologous inhibition in cross-competition of HJ16 and b12,gp120; binding to immobilized gp120,approximately 80%
same,Cross-competition with: 2G12,gp120; inhibition of biotinylated mAb 2G12 binding to immobilized gp120,"− (−, <50% inhibition)"
same,Cross-competition with: HGA9,gp120; inhibition of biotinylated mAb HGA9 binding to immobilized gp120,"− (−, <50% inhibition)"
same,Cross-competition with: HJ16,gp120; inhibition of biotinylated mAb HJ16 binding to immobilized gp120,"+ (+,90-100% inhibition)"
same,Neutralization HOS (number of isolates neutralized),"[1]; HOS-based assay, isolates neutralized/isolates tested",10/20
same,pseudoviruses neutralized out of the 20 pseudoviruses,[1]; mAb at fixed concentration 100 μg/ml,10
same,Percentage of HIV-1 isolates neutralized,[2]; All (92),36%
same,Neutralization TZM-bl (number of isolates neutralized),"[2]; TZM-bl based assay, isolates neutralized/isolates tested",33/92
same,Percentage of HIV-1 isolates neutralized,[2]; Tier 1 (10),10%
same,Percentage of HIV-1 isolates neutralized,"[2]; Tier 1 + Tier 2, Clade A (8)",25%
same,Percentage of HIV-1 isolates neutralized,"[2]; Tier 1 + Tier 2, Clade AD (1)",100%
same,Percentage of HIV-1 isolates neutralized,"[2]; Tier 1 + Tier 2, Clade AG (16)",50%
same,Percentage of HIV-1 isolates neutralized,"[2]; Tier 1 + Tier 2, Clade B (29)",34%
same,Percentage of HIV-1 isolates neutralized,"[2]; Tier 1 + Tier 2, Clade BC (11)",45%
same,Percentage of HIV-1 isolates neutralized,"[2]; Tier 1 + Tier 2, Clade C (26)",27%
same,Percentage of HIV-1 isolates neutralized,"[2]; Tier 1 + Tier 2, Clade G (1)",0%
same,Percentage of HIV-1 isolates neutralized,[2]; Tier 2 (82),39%
same,Percentage of HIV-1 isolates neutralized,"[2]; Tier 2, Clade A (5)",20%
same,Percentage of HIV-1 isolates neutralized,"[2]; Tier 2, Clade AD (1)",100%
same,Percentage of HIV-1 isolates neutralized,"[2]; Tier 2, Clade AG (16)",50%
same,Percentage of HIV-1 isolates neutralized,"[2]; Tier 2, Clade B (24)",42%
same,Percentage of HIV-1 isolates neutralized,"[2]; Tier 2, Clade BC (11)",45%
same,Percentage of HIV-1 isolates neutralized,"[2]; Tier 2, Clade C (24)",29%
same,Percentage of HIV-1 isolates neutralized,"[2]; Tier 2, Clade G (1)",0%
same,Tier-2 isolates neutralized by HJ16 that were not neutralized by b12,[2]; of 32 neutralized,22/32
same,Tier-1 viruses neutralized,[2]; panel of 10 Tier-1 isolates,1 out of 10 and 1/10
same,Tier-2 pseudoviruses neutralized,[2]; panel of 82 Tier-2 isolates,32/82
same,Cross-competition with: sCD4,gp120 binding to sCD4,"+ (+,90-100% inhibition)"
enfuvirtide,IC50,"[1]; 96ZM651.2, clade C",0.6 nM
same,IC50,"[1]; 263-8, clade AG",0.04 nM
same,IC50,"[1]; AC10.0.29, clade B",1.2 nM
same,IC50,"[1]; BaL.26, clade B",1.4 nM
same,IC50,"[1]; CAP210.2.00.E8, clade C",6 nM
same,IC50,"[1]; CH064.20, clade BC",0.7 nM
same,IC50,"[1]; CH110.2, clade BC",0.335 nM
same,IC50,"[1]; CH181.12, clade BC",1.8 nM
same,IC50,"[1]; Du151.2, clade C",0.6 nM
same,IC50,"[1]; JR-FL, clade B",1.9 nM
same,IC50,"[1]; MW965.26, clade C",0.6 nM
same,IC50,"[1]; Q168.a2, clade AD",5.7 nM
same,IC50,"[1]; Q461.e2, clade A",1.6 nM
same,IC50,"[1]; Q769.d22, clade A",1.7 nM
same,IC50,"[1]; RHPA4259.7, clade B",1.9 nM
same,IC50,"[1]; SF162, clade B",6.8 nM
same,IC50,"[1]; SS1196.1, clade B",0.9 nM
same,IC50,"[1]; T257-31, clade AG",2.76 nM
same,IC50,"[1]; ZM53M.PB12, clade C",6.1 nM
same,IC50,"[1]; ZM214M.PL15, clade C",4.42 nM
same,IC50,"[2]; 96ZM651.2, clade C",8.9 nM
same,IC50,"[2]; 263-8, clade AG",< 2.23 nM
same,IC50,"[2]; AC10.0.29, clade B",6.68 nM
same,IC50,"[2]; BaL.26, clade B",6.68 nM
same,IC50,"[2]; CAP210.2.00.E8, clade C",13.4 nM
same,IC50,"[2]; CH064.20, clade BC",< 2.23 nM
same,IC50,"[2]; CH110.2, clade BC",< 2.23 nM
same,IC50,"[2]; CH181.12, clade BC",< 2.23 nM
same,IC50,"[2]; Du151.2, clade C",< 2.23 nM
same,IC50,"[2]; Q168.a2, clade AD",8.9 nM
same,IC50,"[2]; Q461.e2, clade A",6.68 nM
same,IC50,"[2]; Q769.d22, clade A",20 nM
same,IC50,"[2]; RHPA4259.7, clade B",8.9 nM
same,IC50,"[2]; SF162, clade B",20 nM
same,IC50,"[2]; SS1196.1, clade B",4.45 nM
same,IC50,"[2]; T257-31, clade AG",< 2.23 nM
same,IC50,"[2]; ZM53M.PB12, clade C",< 2.23 nM
same,IC50,"[2]; ZM214M.PL15, clade C",17.8 nM
same,IC50,"[3]; 92BR025, clade C",< 16 nM
same,IC90,"[3]; 92BR025, clade C",29 nM
same,IC50,"[3]; 92RW009, clade A",< 16 nM
same,IC90,"[3]; 92RW009, clade A",44 nM
same,IC50,"[3]; 92UG024, clade D",16 nM
same,IC90,"[3]; 92UG024, clade D",48 nM
same,IC50,"[3]; J213, clade B",35 nM
same,IC90,"[3]; J213, clade B",192 nM
same,IC50,"[3]; MN(P), clade B",39 nM
same,IC90,"[3]; MN(P), clade B",63 nM
same,IC50,"[3]; QH0692, clade B",78 nM
same,IC90,"[3]; QH0692, clade B",207 nM
same,IC50,"[3]; VI 191, clade A",32 nM
same,IC90,"[3]; VI 191, clade A",56 nM
